The record followed here is paper PMC8401404 (Molecules, 2021).

Data set [1] relates to poly(dAdT)2 (DNA, polymer) AT. In words: UV thermal melting at 260 nm. The note with it: Na+ (sodium cacodylate, I = 0.05 M), pH 7.0, r = [compound]/[polynucleotide phosphate] = 0.3, error ±0.5, per base.
For the next data set, the system named is ctDNA. Description: Thermal melting experiments. Format: binding, calf. The note with it: r = [compound]/[polynucleotide] = 0.3, pH 7.0, sodium cacodylate buffer I = 0.05 mol dm^−3; error ±0.5 °C. The text has this: (§1) The thermal stability of helices is usually affected by the non-covalent binding of small molecules to double-stranded nucleic acids. We determined the ΔTm value (the difference between the Tm value of free polynucleotide and a complex with a small molecule) for complexes of selected compounds with ctDNA and an alternating polynucleotide, poly(dAdT)2. […] Because of this, we determined ΔTm value with non-alternating AT-DNA, poly dA-poly dT as well.

Data set [2] concerns poly dA-poly dT (DNA, polymer) A/T. Description: UV thermal melting at 260 nm. The note with it: Na+ (sodium cacodylate, I = 0.05 M), pH 7.0, r = [compound]/[polynucleotide phosphate] = 0.3, error ±0.5, per base.
For the next data set, the system named is S. aureus ATCC 29213. Description: Broth microdilution testing (CLSI). Format: cell-based, Staphylococcus aureus. Particulars: 16–24h at 37 °C, read-out: MIC S. aureus ATCC 29213. How it is done:
(§2) Broth microdilution testing was performed according to CLSI (Clinical Laboratory Standards Institute) guidelines. MIC (minimal inhibitory concentration) value was defined as the last tested concentration of compound at which there is no visible growth of bacteria. […] Clinical and Laboratory Standards Institute (CLSI) guidelines.

Data set [3] deals with A549. In words: BrdU proliferation assay, 2D cell culture. Format: cell-based, human. Particulars: A549, 2D, BrdU, n = 2, read-out: Proliferation Assay IC50 ± SD.
Data set [4] concerns HCC827. Description: BrdU proliferation assay, 2D cell culture. Format: cell-based, human. Particulars: HCC827, 2D, BrdU, n = 2, read-out: Proliferation Assay IC50 ± SD.
In data set [5] the test system is NCI-H358. In words: BrdU proliferation assay, 2D cell culture. It counts as cell-based, human. The note with it: NCI-H358, 2D, n = 2, read-out: Proliferation Assay IC50 ± SD.
In another data set the test system is calf thymus DNA (ctDNA). Description: Fluorimetric titrations with ctDNA. The note with it: fluorescence titrations, Scatchard equation, pH 7.0, sodium cacodylate buffer I = 0.05 mol dm-3.
The subject of the next data set is E. coli ATCC 25922. In words: Broth microdilution testing (CLSI). It counts as cell-based, Escherichia coli. Particulars: broth microdilution, 16–24h at 37 °C, read-out: MIC E. coli ATCC 25922. The protocol:
as §2

Data set [6] relates to A549. Description: BrdU proliferation assay, 3D hanging drop cell culture. It counts as cell-based, human. Particulars: A549, 3D, BrdU, n = 2, read-out: Proliferation Assay IC50 ± SD.
The test system of data set [7] is HCC827. The data set is described as above. The note with it: HCC827, 3D, BrdU, n = 2, read-out: Proliferation Assay IC50 ± SD. It counts as cell-based, human.
Data set [8] concerns NCI-H358. The data set is described as above. It counts as cell-based, human. Particulars: NCI-H358, 3D, n = 2, read-out: Proliferation Assay IC50 ± SD.
The test system of a further data set is S. cerevisiae ATCC 7752. Description: Broth microdilution testing (CLSI). Format: cell-based, Saccharomyces cerevisiae. Particulars: broth microdilution, 16–24h at 37 °C, read-out: MIC S. cerevisiae ATCC 7752. The protocol: as §2
A general note: Dilution methods test growth across graded concentrations, often in twofold steps.

A further data set has as its system poly dA-poly dT. In words: Thermal melting experiments. Format: binding. Particulars: r = 0.3, pH 7.0, sodium cacodylate buffer I = 0.05 mol dm^−3; error ±0.5 °C.
Source text: as §1

The subject of another data set is poly(dAdT)2. In words: Thermal melting experiments. Format: binding. The note with it: r = 0.3, pH 7.0, sodium cacodylate buffer I = 0.05 mol dm^−3; error ±0.5 °C.
Source text: as §1

The nature of data set [9]: MTS cytotoxicity assay, 2D cell culture, normal lung fibroblasts. The note with it: human, MRC-5 normal lung fibroblasts, 2D culture. In general terms: Tetrazolium dyes change colour on reduction, which living cells bring about.
Data set [10] concerns A549. Description: Cytotoxicity (viability) assay, 3D hanging drop cell culture. Particulars: read-out: Cytotoxicity Assay IC50 ± SD, A549 3D.
Data set [11] concerns HCC827. The description is as above. The note with it: read-out: Cytotoxicity Assay IC50 ± SD, HCC827 3D.
Data set [12] has as its system NCI-H358. The data set is described as above. Particulars: read-out: Cytotoxicity Assay IC50 ± SD, NCI-H358 3D.
Data set [13] in a line: Solubility in water (stock solutions).
Data set [14] relates to poly(dAdT)2 (DNA, polymer) AT. In words: CD titration. The note with it: Na+ (sodium cacodylate, I = 0.05 M), pH 7.0, 25 °C, polynucleotide 3.0 × 10^-5 M.
Data set [15] deals with A549. Description: MTS cytotoxicity assay, 2D cell culture. Particulars: read-out: Cytotoxicity Assay IC50 ± SD, A549 2D, 72 h, MTS, n = 2.
The subject of data set [16] is HCC827. In words: MTS cytotoxicity assay, 2D cell culture. Particulars: read-out: Cytotoxicity Assay IC50 ± SD, HCC827 2D.
Data set [17] concerns NCI-H358. Description: MTS cytotoxicity assay, 2D cell culture. The note with it: read-out: Cytotoxicity Assay IC50 ± SD, NCI-H358 2D.
In data set [18] the test system is human lung fibroblast cell line MRC-5. Description: MTS cytotoxicity assay, 2D cell culture, normal lung fibroblasts. The note with it: read-out: Cytotoxicity Assay IC50 ± SD; MRC-5 2D; MRC-5 normal lung fibroblasts, 2D, 72 h, MTS; n = 2.
Data set [19] has as its system poly dA-poly dT (DNA, polymer) A/T. Description: CD titration. Particulars: Na+ (sodium cacodylate, I = 0.05 M), pH 7.0, 25 °C, polynucleotide 3.0 × 10^-5 M.
The mark [20] stands for this setting: A549, 3D hanging drop spheres, 72 h, n = 2.
Setting [21] is: HCC827, 3D hanging drop spheres, 72 h, n = 2.
The mark [22] stands for this setting: NCI-H358, 3D hanging drop spheres, 72 h, n = 2.

Molecules are shown by their SMILES. Where a name gives a salt, the structure may show the parent alone. Read-outs that look alike come from different tables or passages of the source. Where only a bound is given, the exact number is not on record here.

Method for calf thymus DNA (ctDNA): The UV/vis spectra were recorded on a Varian Cary 100 Bio spectrophotometer, CD spectra on JASCO J815 spectrophotometer and fluorescence spectra on a Varian Cary Eclipse spectrophotometer.
Spectrophotometric titrations were performed at pH = 7 (I = 0.05 mol dm^−3, sodium cacodylate buffer) by adding portions of polynucleotide solution into the solution of the studied compound for fluorimetric experiments and CD experiments were performed by adding portions of the compound stock solution into the solution of a polynucleotide. In fluorimetric experiments excitation wavelengths of λexc = 350, 370 and 390 nm were used to avoid the inner filter effect caused due by increasing absorbance of the polynucleotide (Figures S3 and S4). Emission was collected in the range λem = 400–600 nm (SI).
aTitration data were processed using Scatchard equation, correlation coefficients were >0.97-
0.99 for all calculated Ks

Usually ΔTm stands for the change in melting temperature against a reference sample. The melting point is the temperature, or range, at which the solid turns liquid. One may read the MIC as the lowest concentration found to suppress growth. The solubility is the dissolved amount per volume that the medium holds. `Cl.Clc1ccc(-c2ccc(-c3nc4ccc(C5=NCCN5)cc4s3)o2)cc1` [Compound 9, 2-[5-(4-Chlorophenyl)furan-2-yl]-6-(4,5-Dihydro-1H-imidazol-2-yl)benzothiazole hydrochloride] returned a melting point of 293 to 297 °C. Besides, in data set [1], the shift in melting temperature (ΔTm) stood at 4.6 °C. For the same molecule, in the data set with ctDNA, the “ΔTm ctDNA” value was found to be 1.8 °C. In addition, the ΔTm in data set [2] came out at 15.2 °C. Moreover, the minimum inhibitory concentration (MIC) with S. aureus ATCC 29213 (Staphylococcus aureus, ATCC29213, broth microdilution) amounted to 25 µM. In addition, the IC50 in the data set on A549 [3] (Homo sapiens) came out at 9.97 ± 5.37 µM. For the same molecule, the IC50 in the data set with HCC827 [4] (Homo sapiens) is 8.69 ± 2.79 µM. In the data set with NCI-H358 [5] (Homo sapiens), the IC50 turned out to be 5.57 ± 0.81 µM. Further, the “Binding constants (logKs) with ctDNA” value in the data set on calf thymus DNA (ctDNA) came out at 6.1. Moreover, the MIC in the data set with E. coli ATCC 25922 (Escherichia coli, ATCC25922) is greater than 100 µM. Besides, the IC50 in the data set on A549 [6] (Homo sapiens) was 17 ± 3.53 µM. The IC50 in the data set on HCC827 [7] (Homo sapiens) came to 20.3 ± 13.9 µM. The IC50 in the data set on NCI-H358 [8] (Homo sapiens) came out at 6.39 ± 3.29 µM. Besides, in the data set on S. cerevisiae ATCC 7752 (Saccharomyces cerevisiae, ATCC7752), the minimum inhibitory concentration (MIC) was found to be 3.13 µM. Also, the “ΔTm Poly dA-poly dT” value in the data set on poly dA-poly dT is 15.2 °C. Moreover, the “ΔTm poly (dAdT)2” value in the data set with poly(dAdT)2 was 4.6 °C. In data set [9], this molecule gave an IC50 at 72 h of 6.65 ± 0.18 µM. Besides, in the data set on A549 [10] (Homo sapiens, A549, 72 h), the IC50 was 16.8 ± 2.61 µM. Also, in the data set with HCC827 [11] (Homo sapiens, HCC827, 72 h), the IC50 stood at 20 ± 7.92 µM. In addition, the IC50 with NCI-H358 [12] (Homo sapiens, NCI-H358, 72 h) amounted to 15.49 ± 0.07 µM. The molecule further came in with a solubility in data set [13] of 1320 µM. Besides, in data set [14], the binding entry is given as “yes”. Moreover, in the data set with A549 [15] (Homo sapiens, A549, 72 h), the IC50 was found to be 4.39 ± 0.79 µM. Also, in the data set with HCC827 [16] (Homo sapiens, HCC827, 72 h), the IC50 turned out to be 5.9 ± 0.58 µM. The IC50 with NCI-H358 [17] (Homo sapiens, NCI-H358, 72 h) was found to be 4.48 ± 0.3 µM.
For the molecule `N#CC(=Cc1ccc(-c2ccc(Cl)cc2)o1)c1nc2cc([N+](=O)[O-])ccc2[nH]1` [Compound 21, (E,Z)-3-[5-(4-Chlorophenyl)furan-2-yl]-2-(5(6)-nitrobenzimidazol-2-yl)acrylonitrile], the minimal inhibitory concentration (MIC) in the data set with S. aureus ATCC 29213 (broth microdilution), with E. coli ATCC 25922 and with S. cerevisiae ATCC 7752 was greater than 100 µM in each case. In addition, the IC50 with A549 [3] was greater than 50 µM; in the data set with HCC827 [4] it was greater than 50 µM; in the data set with NCI-H358 [5], greater than 50 µM; with A549 [6], greater than 100 µM; in the data set on HCC827 [7], greater than 100 µM; in the data set with NCI-H358 [8], greater than 100 µM. Moreover, the IC50 in data set [18] was greater than 50 µM; with A549 [10] (setting [20]), greater than 100 µM; in the data set on HCC827 [11] (setting [21]) it was greater than 100 µM; with NCI-H358 [12] (setting [22]) it was greater than 100 µM; in the data set on A549 [15], greater than 50 µM; with HCC827 [16] (72 h, MTS, n = 2), greater than 50 µM. Moreover, in the data set with NCI-H358 [17] (72 h, MTS, n = 2), the IC50 turned out to be 3.58 ± 0.95 µM.
Molecule `Clc1ccc(-c2ccc(-c3nc4cc(C5=NCCN5)ccc4[nH]3)o2)cc1` (as salt: hydrochloride) [Compound 15, 2-[5-(4-Chlorophenyl)furan-2-yl]-5(6)-(4,5-dihydro-1H-imidazol-2-yl)benzimidazole hydrochloride] gave a melting point of 262 to 269 °C. For the same molecule, the ΔTm in [1] stood at 6.2 °C. In data set [2], the ΔTm is 11.7 °C. Also, the binding result in data set [19] is “yes”. For the same molecule, the binding entry in [14] was “yes”.
For the molecule `N#CC(=Cc1ccc(-c2ccc([N+](=O)[O-])cc2)o1)c1nc2cc([N+](=O)[O-])ccc2[nH]1` [Compound 18, (E,Z)-2-(5(6)-Nitrobenzimidazol-2-yl)-3-[5-(4-nitrophenyl)furan-2-yl]acrylonitrile], the minimal inhibitory concentration (MIC) in the data set on S. aureus ATCC 29213 (broth microdilution), in the data set on E. coli ATCC 25922 and in the data set with S. cerevisiae ATCC 7752 was greater than 100 µM each time. The IC50 in the data set with A549 [3] is greater than 50 µM; in the data set with HCC827 [4], greater than 50 µM; in the data set with NCI-H358 [5], greater than 50 µM; in the data set with A549 [6], greater than 100 µM; in the data set on HCC827 [7] it was greater than 100 µM; with NCI-H358 [8], greater than 100 µM. For the same molecule, the IC50 in data set [18] was greater than 50 µM; in the data set on A549 [10] (setting [20]), greater than 100 µM; in the data set with HCC827 [11] (setting [21]) it was greater than 100 µM; in the data set on NCI-H358 [12] (setting [22]) it was greater than 100 µM; with A549 [15], greater than 50 µM; in the data set on HCC827 [16] (72 h, MTS, n = 2), greater than 50 µM. Moreover, the IC50 with NCI-H358 [17] (72 h, MTS, n = 2) was found to be 3.5 ± 1.14 µM.
